The values below come from patent US8071786B2, “Indole compounds useful as serotonin selective agents” (Galenea Corp., priority 2005, dated 2011).

Marks after values point to notes of the source that are not given here. A value given as a limit tells only on which side of the number the result lay.

Data set [1] concerns the target T1, human 5-HT2C-INI (Homo sapiens, UniProt P28335).
T1 construct: expressed in transfected cells
T1 sequence (P28335 33-458): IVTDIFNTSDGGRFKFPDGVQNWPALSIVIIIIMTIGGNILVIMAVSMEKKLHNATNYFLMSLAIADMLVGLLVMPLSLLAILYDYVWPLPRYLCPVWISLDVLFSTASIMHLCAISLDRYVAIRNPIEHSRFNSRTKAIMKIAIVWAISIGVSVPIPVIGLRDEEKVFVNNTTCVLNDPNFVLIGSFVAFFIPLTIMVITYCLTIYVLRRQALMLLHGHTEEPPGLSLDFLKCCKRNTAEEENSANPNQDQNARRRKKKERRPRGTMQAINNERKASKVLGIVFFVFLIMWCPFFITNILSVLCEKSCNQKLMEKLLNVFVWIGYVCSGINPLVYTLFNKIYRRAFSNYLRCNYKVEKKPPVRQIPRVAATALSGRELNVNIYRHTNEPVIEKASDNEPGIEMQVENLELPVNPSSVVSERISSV
In words: Phosphoinositide hydrolysis functional assay. It counts as cell-based. Conditions: for Emax: value in brackets, read-out: percent Vmax relative to serotonin at 100%, 5-HT2C (converted). As to the method: (§1) Phosphoinositide hydrolysis assays were performed with stably (5-HT2A, 5-HT2C) or transiently (5-HT2B) expressed receptors plated in 24-well culture plates. Transfected cells were loaded with […] overnight in inositol-free DMEM without serum. The next day, phosphate accumulation assays were performed in a modified Krebs-bicarbonate buffer. Kact (nmol/L) and percent Vmax (relative to 5-HT) values were calculated (Roth, B. L., Shoham, M., Choudhary, M., Khan, N. “Identification of Conserved Aromatic Residues Essential for Agonist Binding and Second Messenger Production at 5-Hydroxytryptamine 2A Receptors” Mol. Pharmacol. 1997, 52, 259; Roth, B. L., Choudhary, M., Khan, N., Uluer, A. “High-affinity Agonist Binding is not Sufficient for Agonist Efficacy at 5-Hydroxytryptamine 2A Receptors: Evidence in Favor of a Modified Ternary Complex Model” J. Pharmacol. Exp. Ther. 1997, 280, 576).
(§2) Functional Assay (EC50) in nM. Data represent mean EC50 values for activation of phospho-inositide hydrolysis in cells expressing human 5-HT2A, 5-HT2B or 5-HT2C-INI receptors, relative to serotonin at 100%. When the standard deviation is given, N≧3.

For data set [2], the target named is T2, 5-HT2A (Homo sapiens, UniProt P28223). The data set is described as follows: Phosphoinositide hydrolysis functional assay. The data set is classed as cell-based. More on the design: expressed in transfected cells. Conditions: for percent Vmax relative to serotonin at 100%, 5-HT2A: value in brackets. The protocol:
as §1, §2

Data set [3] deals with T3, 5-HT2B (Homo sapiens, UniProt P41595). In words: Phosphoinositide hydrolysis functional assay. It counts as cell-based. Also on record: expressed in transfected cells. As to the method:
as §1, §2

The target of data set [4] is T2, 5-HT2A. The data set is described as follows: Receptor binding, competition binding assay. As to the method:
(§3) For initial screens, a 10 micromolar concentration of each compound (dissolved in 10% DMSO) was incubated with the appropriate receptor preparation and percent inhibition determined for duplicate determinations each performed in duplicate. Where >50% inhibition of specific binding was measured, Ki determinations were then measured by competition binding assays in which concentrations from 1 to 100,000 nM were incubated in duplicate. For each Ki value the data represent the mean+/−SD of computer-derived estimates for N=4 separate determinations, as described (Rothman, R., Baumann, M., Savage, J., Rauser, L., McBride, A., Hufeisen, S., Roth, B. L. “Evidence for Possible Involvement of 5-HT2B Receptors in the Cardiac Valvulopathy Associated with Fenfluramine and other Serotonergic Medications” Circulation 2000, 102, 2836; Roth, B. L., Shoham, M., Choudhary, M., Khan, N. “Identification of Conserved Aromatic Residues Essential for Agonist Binding and Second Messenger Production at 5-Hydroxytryptamine 2A Receptors” Mol. Pharmacol. 1997, 52, 259; Roth, B. L., Choudhary, M., Khan, N., Uluer, A. “High-affinity Agonist Binding is not Sufficient for Agonist Efficacy at 5-Hydroxytryptamine 2A Receptors: Evidence in Favor of a Modified Ternary Complex Model” J. Pharmacol. Exp. Ther. 1997, 280, 576).
(§4) Receptor binding (Ki) in nM. When the standard deviation is given N≧3.

For data set [5], the target named is T3, 5-HT2B. In words: Receptor binding, competition binding assay. As to the method: as §3, §4
The target in data set [6] is T4, 5-HT2C (Homo sapiens, UniProt P28335).
T4 sequence (P28335 33-458): T1 sequence (P28335 33-458)
The data set is described as follows: Receptor binding, competition binding assay. As to the method:
as §3, §4

Data set [7] is described as follows: Appetite suppression in mice, acute assay (food consumption). The data set is classed as in vivo. Conditions: for Mean food consumption 60 min. after injection: g (±SEM) Compound / Mean food consumption 90 min. after injection: g (±SEM) Compound: mice deprived of food 18 hours. The protocol:
Mice were deprived of food, but not water, for 18 hours. They were then injected i.p. with test compounds dissolved in 0.9% NaCl containing 1 mg per ml ascorbic acid for protection against oxidation. Each mouse was placed in an individual cage for 30 minutes and then presented with a small petri dish containing a gel made from gelatin, powdered milk and sucrose. The dish was weighed at zero time and at 15-minute intervals for the next hour in order to quantitate food consumption. Controls were injected with saline-ascorbic acid; ±fenfluramine was used as an active control. Control consumption generally ranged from 1.5 to 2.0 grams.

The subject of data set [8] is itch-associated scratching induced by serotonin. The data set is described as follows: Animal model for OCD: serotonin-induced scratching. The data set is classed as in vivo, male Swiss-Webster mice. To be noted: for Number of Scratches as Percentage of Control: inducer Serotonin. The protocol: The 5-HT action is at least partly mediated by 5-HT2 receptors in the skin, as shown by blocking with specific antagonists (Yamaguchi, T., Nagasawa, T., Satoh, M., Kuraishi, Y. “Itch-associated Response Induced by Intradermal Serotonin Through 5-HT2 Receptors in Mice” Neurosci. Res. 1999, 35, 77). The effect of test compounds on itch-associated scratching in the mice may indicate their action on 5-HT receptors, and a study was carried out as an animal model for OCD. The subjects were male Swiss-Webster mice, 4-6 weeks old, weighing 25-45 g. Mice were housed 5 per cage, given free access to standard mouse food and water except during experiments, and maintained in a temperature-controlled room (70° F.). Serotonin and all test drugs were made up with ascorbic acid to protect against oxidation. Two mice, one a control, the other experimental, were tested each time. Each mouse was separately placed into a plexiglas box.
Mice were injected subcutaneously between the shoulder blades with either 0.1 ml of serotonin, 0.4 mg per ml in 0.15 M saline plus ascorbic acid, 1 mg/ml, or compound 48-80 (the copolymer product of N-methyl-p-methoxyphenethylamine with formaldehyde), 1.0 mg/ml in saline plus ascorbic acid. Test compounds were injected i.p. 5 minutes before the inducer. The cumulative number of scratches with a hind leg was recorded at 5 minute intervals for 30 minutes. One saline injected control and one test animal were tested together in each assay.

[9] abbreviates: activation of phosphoinositide hydrolysis, stably expressed receptor.
The mark [10] stands for this setting: activation of phosphoinositide hydrolysis, transiently expressed receptor.

T2 sequence (P28223 whole entry): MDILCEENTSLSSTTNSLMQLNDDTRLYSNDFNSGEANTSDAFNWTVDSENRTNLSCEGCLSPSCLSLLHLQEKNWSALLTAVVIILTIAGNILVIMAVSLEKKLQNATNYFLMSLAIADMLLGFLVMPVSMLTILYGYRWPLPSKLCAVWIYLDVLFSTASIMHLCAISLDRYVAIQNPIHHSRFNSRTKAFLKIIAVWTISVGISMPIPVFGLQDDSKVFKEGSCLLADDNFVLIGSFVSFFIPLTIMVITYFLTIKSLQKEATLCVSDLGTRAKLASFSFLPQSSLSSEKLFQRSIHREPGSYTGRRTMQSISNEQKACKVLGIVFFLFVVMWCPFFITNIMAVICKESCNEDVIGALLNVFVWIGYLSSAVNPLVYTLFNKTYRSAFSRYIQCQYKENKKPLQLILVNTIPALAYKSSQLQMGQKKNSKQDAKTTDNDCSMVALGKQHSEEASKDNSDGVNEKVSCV
T3 sequence (P41595 whole entry): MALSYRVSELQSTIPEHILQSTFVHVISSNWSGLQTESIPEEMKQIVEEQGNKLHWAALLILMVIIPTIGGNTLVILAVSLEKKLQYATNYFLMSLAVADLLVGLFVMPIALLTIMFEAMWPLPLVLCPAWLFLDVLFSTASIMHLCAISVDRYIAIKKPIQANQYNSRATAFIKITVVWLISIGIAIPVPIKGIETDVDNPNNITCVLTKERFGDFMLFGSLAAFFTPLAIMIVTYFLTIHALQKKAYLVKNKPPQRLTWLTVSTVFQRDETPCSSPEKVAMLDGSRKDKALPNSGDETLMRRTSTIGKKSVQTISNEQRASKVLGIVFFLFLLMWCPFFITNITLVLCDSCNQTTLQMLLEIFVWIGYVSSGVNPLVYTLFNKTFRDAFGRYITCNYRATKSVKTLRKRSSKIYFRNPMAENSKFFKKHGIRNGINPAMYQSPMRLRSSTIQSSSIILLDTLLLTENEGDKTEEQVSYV

Turning to `CCn1cc(CCN(C)C)c2c(O)ccc(F)c21` [Compound O-3943, 3-(2-Dimethylaminoethyl)-7-fluoro-1-ethyl-1H-indol-4-ol], the melting point (usually the temperature, or range, at which the solid turns liquid) is 114 to 120 °C. Besides, in data set [1] (setting [9]), the midpoint of the response, the EC50, lay at 5.4 ± 2.5 nM. The Emax in data set [1] was 100%. The EC50 (usually the concentration giving half of the maximal effect) in data set [2] (setting [9]) came out at 12.9 nM. The molecule further displayed an EC50 in data set [3] (setting [10]) greater than 10000 nM. Affinity in data set [4] was put at a Ki of 97 ± 35 nM. In addition, the Ki (commonly the equilibrium dissociation constant of an inhibitor or competing ligand from its target) in [5] amounted to 2.5 ± 0.84 nM. Besides, in data set [6], the Ki came out at 9.1 ± 3.99 nM.
`CN(C)CCc1cn(CCF)c2c(F)ccc(O)c12` [Compound O-3975, 3-(2-Dimethylaminoethyl)-7-fluoro-1-(2-fluoroethyl)-1H-indol-4-ol] yielded a melting point of 97 to 101 °C. In data set [1] (setting [9]), this molecule gave an EC50 greater than 2000 nM. The same molecule had an EC50 in data set [2] (setting [9]) of 614 nM. Besides, the EC50 in data set [3] (setting [10]) was greater than 10000 nM. The molecule further registered a Ki in data set [4] of 308 ± 61.4 nM. In data set [5], this molecule displayed a Ki of 2.77 ± 0.31 nM. In addition, the Ki in [6] is 7.74 ± 0.65 nM.
With `CCCn1cc(CCN(C)C)c2c(O)ccc(F)c21` [Compound O-3952, 3-(2-Dimethylaminoethyl)-7-fluoro-1-propyl-1H-indol-4-ol], the melting point was in the range of 75 to 79 °C. The half-maximal effective concentration (EC50) in data set [1] (setting [9]) was 11 ± 4 nM. The Emax in data set [1] was 89%. Moreover, a half-maximal effect in data set [2] (setting [9]) (EC50) was put at 1280 nM. Besides, the “percent Vmax relative to serotonin at 100%, 5-HT2A” value in data set [2] was 103% +/− 7. Moreover, the EC50 in [3] (setting [10]) was greater than 10000 nM. Besides, the Ki in data set [4] turned out to be 492 ± 79.3 nM. The molecule also returned a Ki in data set [5] of 2.79 ± 0.31 nM. The affinity in data set [6], expressed as Ki, was 10.5 ± 2.39 nM.
In turn, `CN(C)CCc1cn(C)c2c(F)ccc(O)c12` [Compound O-3804, 3-(2-Dimethylaminoethyl)-7-fluoro-1-methyl-1H-indol-4-ol] displayed a melting point of 134 to 138 °C. Also, in data set [7] (10 mg/kg i.p.), the “% of Control (food consumption 60 min. after injection)” value worked out at 114%, the “% of Control (food consumption 90 min. after injection)” value is given as 96%, the “Mean food consumption 60 min. after injection: g (±SEM) Compound” value is listed as 1.3 (.14) g and the “Mean food consumption 90 min. after injection: g (±SEM) Compound” value is given as 1.76 (.15) g. In data set [7] (20 mg/kg i.p.), the “% of Control (food consumption 60 min. after injection)” value was 99%, the “% of Control (food consumption 90 min. after injection)” value turned out to be 107%, the “Mean food consumption 60 min. after injection: g (±SEM) Compound” value is reported as 1.48 (.19) g and the “Mean food consumption 90 min. after injection: g (±SEM) Compound” value is listed as 1.86 (.20) g. Besides, in [7] (30 mg/kg i.p.), the “% of Control (food consumption 60 min. after injection)” value stood at 56%, the “% of Control (food consumption 90 min. after injection)” value is 77%, the “Mean food consumption 60 min. after injection: g (±SEM) Compound” value is recorded as 0.79 (.09)* g and the “Mean food consumption 90 min. after injection: g (±SEM) Compound” value was 1.37 (.11) g. Moreover, a half-maximal response in data set [1] (setting [9]) (EC50) required 0.517 nM. Also, in [1], the Emax was 89.9%. Besides, in data set [2] (setting [9]), the EC50 was found to be 129 ± 1.44 nM. Moreover, the “percent Vmax relative to serotonin at 100%, 5-HT2A” value in [2] is “(125.4% ± 6.225%)”. In [3] (setting [10]), this molecule returned an EC50 of 35.4 ± 1.31 nM. Moreover, in data set [3] (value in brackets), the “percent Vmax relative to serotonin at 100%, 5-HT2B” value is “(7.0 ± 0.92%)”. In data set [4], this molecule registered a Ki of 68.2 nM. Moreover, the affinity in [5], expressed as Ki, was 3.64 nM. Besides, the affinity in [6], expressed as Ki, was 25.4 nM. Moreover, the “Average Number of Scratches 30 min. after injection” value in data set [8] (5 mg/kg i.p. 5 minutes before inducer Serotonin) is 128.4. Further, in data set [8] (5 mg/kg i.p.), the “Number of Scratches as Percentage of Control” value is 34.2%. The “Average Number of Scratches 30 min. after injection” value in data set [8] (20 mg/kg i.p. 5 minutes before inducer Serotonin) is reported as 12.8*. Moreover, in data set [8] (20 mg/kg i.p.), the “Number of Scratches as Percentage of Control” value turned out to be 2.2%.
Regarding `CCCCn1cc(CCN(C)C)c2c(O)ccc(F)c21` [Compound O-4205, 3-(2-Dimethylaminoethyl)-7-fluoro-1-butyl-1H-indol-4-ol], the melting point lay in the range of 87 to 90 °C. Also, the “Functional Assay (EC50) 5-HT2C” value in data set [1] (setting [9]) was “inactive”. Moreover, the “Functional Assay (EC50) 5-HT2A” value in [2] (setting [9]) is recorded as “Inactive”. Moreover, in data set [3] (setting [10]), the “Functional Assay (EC50) 5-HT2B” value is on record as “Inactive”.
